# Entries after “also recorded” stand apart in the source; their conditions may differ.
# How the values were obtained:
# [1] = test system: Bcl-xL; assay: Western blotting of Bcl-xL expression in podocytes; format: cell-based, mouse; conditions: time-dependent, HCl
# Source text: (§1) A well established cell model of conditionally immortalized murine podocytes was used to determine the impact of calcimimetics on podocyte function. These immortalized podocyte cell lines were generated from the Inmortomouse® (Charles River, Wilmington, Mass., USA) carrying a temperature-sensitive T-antigen as transgene, under the control of an interferon-γ inducible promoter. […]
# (§2) Protein extraction from cultured podocytes and SDS-PAGE were done as previously described (Weins et al., supra). Total and phosphorylated proteins were detected by Western blotting as described previously, using the following primary antibodies: Bad (dilution 1:1000), pBad (1:1000), Bax (1:1000), Bid (1:1000), Bcl-xl (1:500), CREB (1:4000), ERK1/2 (1:4000), pERK 1/2 (1:4000), pJNK (1:1000), p38MAPK (1:500), p90RSK (1:2000) (Cell Signaling Technology, Beverly, Mass., USA), Bcl-2 (1:500), Caveolin-1 (1:500), 3-Actin (1:10000) (Abcam, Cambridge, UK) CaSR 1:100 (Alpha Diagnostics, San Antonio, Tex., USA). […]
# [2] = test system: BAD; assay: Western blotting of BAD phosphorylation in podocytes; format: cell-based, mouse; conditions: 10 nmol/l
# Source text: as §1, §2
# [3] = test system: intracellular proteins; assay: Activation of intracellular proteins in podocytes by calcimimetic; format: cell-based, mouse; conditions: 4 nmol/l
# Source text: as §1, §2
# [4] = test system: podocytes genes; assay: Microarray analysis of Compound A-dependent regulation of podocyte genes; format: cell-based, mouse; conditions: 10 nmol/l, 12 hrs
# [5] = test system: BID; assay: Western blotting of BID in podocytes; format: cell-based, mouse; conditions: Compound A exposure, HCl
# Source text: as §1, §2
# [6] = test system: podocytes; assay: FACS analysis of PAN-induced apoptosis of podocytes; format: cell-based, mouse; conditions: PAN 30 μg/ml; for reduction of PAN induced increase in apoptosis rate: Compound A 10 mmol/l as printed, p<0.05; for apoptosis rate of cultured podocytes: baseline less than 20% in controls
# Source text: (§3) A well established cell model of conditionally immortalized murine podocytes was used to determine the impact of calcimimetics on podocyte function. These immortalized podocyte cell lines were generated from the Inmortomouse® (Charles River, Wilmington, Mass., USA) carrying a temperature-sensitive T-antigen as transgene, under the control of an interferon-γ inducible promoter. They were maintained cultured as previously described (Weins A et al. (2001) J Cell Biol 155: 393-404; Asanuma K. et al. (2005). J Clin Invest 115: 1188-1198. In brief, the cell line was maintained in RPMI 1640 (PAA Laboratories, Pasching, Austria) supplemented with 10% fetal bovine serum (PAA Laboratories, Pasching, Austria), 100 U/ml penicillin/streptomycin (Biochrom AG, Berlin, Germany) in humidified incubators with air-5% CO2. In order to induce differentiation, podocytes were grown on collagen type I (BD Bioscience, Bedford, Mass., USA) under permissive conditions at 33° C. with IFN-γ (10 U/ml) (Roche, Mannheim, Germany) or under non-permissive conditions at 37° C. without IFN-γ for at least 10 days.
# All cells were treated as described, then washed and trypsinized. All washes and eluted cells were collected, pooled, and centrifuged. After washing cells with Annexin-binding buffer, cells were incubated with FITC-labelled Annexin-V (Molecular Probes) and propidium iodide (Molecular Probes) for 30 min. Annexin-V binds phosphatidylserine, which is translocated to the outer cell membrane during the initial stages of apoptosis. Propidium iodide was also applied to cells in order to distinguish necrosis from apoptosis. Cells were analyzed by flow cytometry (FACScalibur, Becton Dickinson). Apoptosis-associated fluorescence was measured using a log scale. Cells with high propidium iodide content were necrotic and were excluded from the analysis.
# This example summarizes the results of FACS analyses. […] PAN (30 μg/ml) increased apoptosis rate of cultured podocytes to 44 and 78% correspondingly after 48 and 60 hrs of incubation, as compared to a baseline apoptosis rate of less than 20% in respective controls (FIG. 11). Addition of Compound A (10 mmol/l) reduced PAN induced increase in apoptosis rate in three independent experiments by 55 and 60% after 48 and 60 hrs respectively (both p<0.05).
# [7] = test system: PAN-treated rats; assay: Animal model of PAN nephrosis (proteinuria); format: in vivo, rat
# Description: Puromycin aminonucleoside (PAN), which induces oxidant injury in cells via the xanthine oxidase pathway, has been used extensively as a model of podocyte injury. Podocyte injury in this model can be ameliorated by inhibitors of oxidants. Following PAN injection (15 mg/100 g body weight), injury in the rat podocytes is manifest by loss of interdigitating foot processes, detachment from the GBM, pseudocyst formation, reduction in anionic charge, attenuation of the underlying GBM, and associated leakiness of the glomerular filter resulting in proteinuria. The PAN model also progresses to a patchy glomerular scarring process [focal glomerulosclerosis (FSGS)]. FSGS in humans is commonly associated with progression to end-stage renal disease (ESRD) requiring renal replacement therapy. […] Podocytes were stained against WT-1, a specific marker for podocytes and counted under an immunofluorescence microscope.
# Male Sprague-Dawley rats weighing approximately 100 g were administered intraperitoneal PAN (Sigma Company, St. Louis, Mo., USA) at a dose of 15 mg/100 g body weight, or additionally at the same time a single injection of Compound A (doses 2 mg/100 g body weight) 4 hours before, or an equivalent volume of 0.9% saline (0.2-0.4 ml/animal) (N=10-15 animals per group). […] Protein/Creatinin ratio was measured with ADVIA 2400, Bayer Diagnostics. […]
# [8] = test system: p90RSK; assay: Western blotting of p90RSK phosphorylation in podocytes; format: cell-based, mouse; conditions: 10 nmol/l, HCl
# Source text: as §1, §2
# (§4) This CREB activation is able to mediate signals from numerous physiological stimuli, resulting in the regulation of a broad array of cellular responses, such as regulating of apoptosis associated genes. Therefore downstream pro-survival factors were analyzed. […]
# [9] = test system: CREB; assay: Western blotting of CREB phosphorylation in podocytes; format: cell-based, mouse
# Source text: as §3, §2, §4
# [10] = test system: JNK; assay: Western blotting of JNK activation in podocytes; format: cell-based, mouse; conditions: any time-point, HCl
# Source text: as §1, §2
# [11] = test system: p38 MAPK; assay: Western blotting of p38 MAPK phosphorylation in podocytes; format: cell-based, mouse; conditions: 10 nmol/l, after 5 min and again after 30 and 60 min, HCl
# Source text: as §1, §2
# [12] = test system: ERK1/2; assay: Western blotting of ERK1/2 phosphorylation in podocytes; format: cell-based, mouse
# Source text: as §3
# Protein extraction from cultured podocytes and SDS-PAGE were done as previously described (Weins et al., supra). Total and phosphorylated proteins were detected by Western blotting as described previously, using the following primary antibodies: Bad (dilution 1:1000), pBad (1:1000), Bax (1:1000), Bid (1:1000), Bcl-xl (1:500), CREB (1:4000), ERK1/2 (1:4000), pERK 1/2 (1:4000), pJNK (1:1000), p38MAPK (1:500), p90RSK (1:2000) (Cell Signaling Technology, Beverly, Mass., USA), Bcl-2 (1:500), Caveolin-1 (1:500), 3-Actin (1:10000) (Abcam, Cambridge, UK) CaSR 1:100 (Alpha Diagnostics, San Antonio, Tex., USA). Western blot analysis was carried out according to standard protocols and visualized using enhanced chemiluminescence (ECL) immunoblot detection kits (Amersham Biosciences, Little Chalfont Buckinghamshire, UK).
# It has been established previously that the activation of the CaSR induces a variety of intracellular signalling pathways such as the protein kinase C(PKC) and the MAP kinase pathways.
# In addition, U0126 suppressed the phosphorylation of CREB (FIG. 10). Blockade of MEK1/2 and MAP kinases can not be bypassed via activation of other pathways such as PKC.
# [13] = inhibitor 10 mM as printed, Compound A 10 nmol
smiles,measurement,setting,value
"COc1cccc([C@@H](C)NCCCc2ccccc2Cl)c1.Cl [Compound A, N-(3-[2-chlorophenyl]-propyl)-R-▪-methyl-3-methoxybenzylamine HCl]",Bcl-xl expression,[1],induced in a time-dependent way; also recorded: increased expression
same,amount of non-phosphorylated BAD,[2],decreases
same,amount of phosphorylated BAD,[2]; time-dependent,clearly increases
same,activation of intracellular proteins,[3],activation of intracellular proteins was demonstrated
same,CaSR-regulated genes/number of genes analyzed: Adherens junction,[4],11/62
same,CaSR-regulated genes/number of genes analyzed: Adhesion-extracellular matrix,[4],14/84
same,CaSR-regulated genes/number of genes analyzed: Apoptosis,[4],9/72
same,CaSR-regulated genes/number of genes analyzed: Cytokine receptor interactions,[4],29/187
same,CaSR-regulated genes/number of genes analyzed: Focal Adhesions,[4],30/174
same,CaSR-regulated genes/number of genes analyzed: MAPK signaling pathways,[4],30/193
same,CaSR-regulated genes/number of genes analyzed: Nfkb signaling,[4],8/79
same,CaSR-regulated genes/number of genes analyzed: Regulation of actin cytoskeleton,[4],26/171
same,CaSR-regulated genes/number of genes analyzed: TGF beta signaling pathway,[4],9/62
same,CaSR-regulated genes/number of genes analyzed: Toll-like-receptor signaling,[4],10/69
same,CaSR-regulated genes/number of genes analyzed: Wnt signaling pathways,[4],15/116
same,"mRNA expression of pro-apoptotic genes calpain 1, calpain small subunit 1, caspase 7 and caspase 8",[4],down-regulated
same,mRNA expression of pro-survival factor Bcl-2,[4],up-regulated
same,genes significantly regulated out of 15000 genes investigated,[4]; vs untreated cells,10%
same,BID,[5],not affected; also recorded: not influenced
same,PAN induced apoptosis of podocytes (FIG. 11 legend),"[6]; Compound A 10 nmol/l, 48 h and 60 h",prevents
same,reduction of PAN induced increase in apoptosis rate,[6]; 48 hrs,55%
same,reduction of PAN induced increase in apoptosis rate,[6]; 60 hrs,60%
same,proteinuria in group receiving PAN and Compound A,"[7]; male Sprague-Dawley rats, PAN 15 mg/100 g i.p., Compound A 2 mg/100 g body weight single injection, HCl",significant protection; also recorded: successfully impeded; also recorded: prevent the development of proteinuria
same,"proteinuria after a single dose, compared to untreated control rats receiving saline","[7]; rats, after day 6, intraperitoneal",significantly induced
same,p90RSK phosphorylation,[8],phosphorylated in a similar time pattern as ERK1/2; also recorded: induction
same,CREB phosphorylation,"[9]; 10 nmol/l, HCl",leads to CREB phosphorylation; also recorded: induction
same,JNK activation,[10],no activation; also recorded: not activated
same,p38 MAPK phosphorylation,[11],clear biphasic response pattern; also recorded: biphasic phosphorylation
same,phosphorylation of ERK1/2,"[12]; 4 to 50 nmol/l, dose- and time-dependent, HCl",phosphorylation of ERK1/2 occurs; also recorded: time and dose dependent phosphorylation
same,activation of ERK1/2,"[12]; 10 mol/l as printed, not further increased by higher concentrations",strong activation
same,time of first detectable ERK1/2 phosphorylation steps,[12]; Compound A incubation,2 min
same,time of maximal ERK1/2 phosphorylation,[12]; Compound A incubation,10 min
"N#CC(=C(/N)Sc1ccccc1N)/C(C#N)=C(\N)Sc1ccccc1N [Compound U0126, reference compound]",phosphorylation of CREB in presence of MEK1/2 inhibitor,[9]; inhibitor 10 μM,suppressed
same,calcimimetic-induced phosphorylation of CREB in presence of inhibitor (FIG. 10 legend),[9]; [13],strongly inhibits
same,Compound A-induced phosphorylation of ERK1/2 in presence of MEK1/2 inhibitor,[12]; inhibitor 10 μM,abolish completely
same,calcimimetic-induced phosphorylation of ERK 1/2 in presence of inhibitor (FIG. 10 legend),[12]; [13],strongly inhibits
"CN(C)c1ncnc2c1ncn2[C@@H]1O[C@H](CO)[C@@H](N)[C@H]1O [PAN, puromycin aminonucleoside, reference compound]",apoptosis rate of cultured podocytes,[6]; 48 hrs of incubation,44%
same,apoptosis rate of cultured podocytes,[6]; 60 hrs of incubation,78%

# Source: patent US20080255181A1, “Methods for treating podocyte-related disorders” (University of Heidelberg, priority 2006, published 2008)
